From ChEMBL document CHEMBL1131005, “Synthesis and dopamine transporter affinity of the four stereoisomers of (+/-)-2-(methoxycarbonyl)-7-methyl-3-phenyl-7-azabicyclo[2.2.1]heptane” (J Med Chem, 1998)

Biological target: Sodium-dependent dopamine transporter (Rattus norvegicus, UniProt P23977)
Assay: Binding affinity towards dopamine transporter using [3H]WIN-35428 as radioligand in rat caudate-putamen tissue
Format: tissue-based

Sodium-dependent dopamine transporter, sequence (P23977 whole entry): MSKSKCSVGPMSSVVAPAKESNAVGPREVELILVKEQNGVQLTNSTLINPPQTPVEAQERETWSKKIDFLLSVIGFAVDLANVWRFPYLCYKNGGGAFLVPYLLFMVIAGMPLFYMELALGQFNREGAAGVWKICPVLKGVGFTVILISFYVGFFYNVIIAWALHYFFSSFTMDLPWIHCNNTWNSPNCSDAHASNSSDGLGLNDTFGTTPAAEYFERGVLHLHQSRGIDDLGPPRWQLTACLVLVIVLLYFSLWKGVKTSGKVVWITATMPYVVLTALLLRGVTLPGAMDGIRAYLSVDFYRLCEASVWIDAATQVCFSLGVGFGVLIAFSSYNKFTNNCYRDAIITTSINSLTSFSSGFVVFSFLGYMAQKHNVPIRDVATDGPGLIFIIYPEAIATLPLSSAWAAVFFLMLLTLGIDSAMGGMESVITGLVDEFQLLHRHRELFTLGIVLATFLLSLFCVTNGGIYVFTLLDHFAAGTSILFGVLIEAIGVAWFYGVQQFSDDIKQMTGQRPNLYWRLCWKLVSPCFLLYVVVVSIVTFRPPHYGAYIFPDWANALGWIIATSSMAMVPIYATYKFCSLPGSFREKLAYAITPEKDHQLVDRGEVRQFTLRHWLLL

Row | Compound | Ki [µM]
1 | COC(=O)[C@@H]1C2CCC([C@H]1c1ccccc1)N2C (stereo partly drawn) | 5.62
2 | COC(=O)[C@H]1C2CCC([C@H]1c1ccccc1)N2C (stereo partly drawn) | 18.9
3 | COC(=O)[C@@H]1C2CCC([C@@H]1c1ccccc1)N2C (stereo partly drawn) | 60.4
